Source: US8063108B2, “Method for modulating microbial quorum sensing” (priority 2004, dated 2011)

How the values were obtained:
[1] = biological target: T1, LasR transcriptional activator (Pseudomonas aeruginosa, UniProt P25084); experiment: P. putida F117 pKRC12 lasB-GFP reporter assay (secondary screens); assay type: cell-based; conditions: compounds 10 μM, relative fluorescence (fluorescence divided by absorbance at 600 nm) as percent of AHL induced control; for % Activity of AHL Standard, 3 oxo C10HSL: 3oxoC10HSL 100 nM; for % Activity of AHL Standard, 3 oxo C12HSL: 3oxoC12HSL 50 nM
T1 construct: expressed in transfected cells; host or cells: Pseudomonas putida F117 carrying plasmid pKRC12 (lasR, PlasB-gfp)
Procedure: Additional screens were performed similar to screen described in the initial screen, except assays were performed in 96-well microtiter plates at a total volume of 100 μl. The reporter strain P. putida F117 pKRC12 was grown overnight at 28° C. in LB media, diluted with LB media to achieve an optical density of 0.05 at 600 nm (OD600), and 96 μl of cells were aliquoted to 96-well plates. Compounds were added at a final concentration of 100 nm or as otherwise indicated in each experiment and the bacterial cells were incubated with the compounds for approximately 30 minutes prior to the addition of 3oxoC10HSL or 3oxoC12HSL at a final concentration of 100 nM and 50 nM respectively or as indicated for each experiment. Fluorescence was measured at regular intervals after 3 hours using the Wallac Victor2 plate reader with an excitation wavelength of 485 nm and emission detection at 515 nm. Representative results are presented in FIGS. 6A and B and present the percentage of GFP expression activity as a function of expression of the AHL (3oxoC10 HSL) control. The numbers on the X axis refer to the Chembridge library reference number. Effects on growth of the antagonists were determined by measuring the optical density at 600 nm of growing bacterial cultures P. putida F 117 pKRC 12. […] (Reference for P. putida F117 pKRC12: Steidle, A., K. Sigl, R. Schuhegger, A. Ihring, M. Schmid, S. Gantner, M. Stoffels, K. Riedel, M. Givskov, A. Hartmann, C. Langebartels, and L. Eberl. 2001. Visualization of N-acylhomoserine lactone-mediated cell-cell communication between bacteria colonizing the tomato rhizosphere. Appl Environ Microbiol 67:5761-70). […]
This example presents representative results of experiments designed to test the activity of putative antagonists when challenged with different concentrations of synthetic AHLs, particularly 3oxoC12HSL. Assays were conducted with P. putida F117 pKRC12 reporter strain as described in the methods for secondary screens.
Following the initial screens to identify strong antagonists of the LasR transcriptional activator, further investigation of additional compounds in the Chembridge library was carried out. In particular, the experiments described in Example 1 identified three compounds that shared a thiocarbamate structure, as also shown in FIG. 16. To further investigate structure-activity relationships, the inventors examined the antagonist activity of 19 additional compounds with related thiocarbamate structures, using the procedures described in Example 1. The results are presented in Table 4, expressed as the percent activity of the AHL induced control. The % activity represents the relative fluorescence, which is the fluorescence observed in each assay divided by bacterial cell density as measured by absorbance at 600 nm. Compounds were assayed at a concentration of 10 μM. Assays were conducted with P. putida F117 pKRC12 reporter strain as described in the methods for secondary screens. The 3oxoC10HSL and 3oxoC12HSL were assayed at concentrations of 100 nM and 50 nM, respectively.

[2] = biological target: T1, LasR transcriptional activator; experiment: Screen signal of thiocarbamate compounds (Table 1), GFP AHL sensor strain with LasR; assay type: cell-based
From the text: A screening system with green fluorescent protein as a reporter gene was adapted in a non-pathogenic species, Pseudomonas putida, closely related to Pseudomonas aeruginosa. A key element involved in the regulation of Pseudomonas aeruginosa, LasR, was engineered into the GFP construct (see FIG. 2), such that expression of GFP is linked to quorum sensing. Pseudomonas putida was then subjected to induction (e.g. by 3oxoC12HsL or 3oxoC10HsL) and/or inhibition by candidate chemical compounds from a commercially available combinatorial library. About 16,000 candidate compounds were individually screened.
Many Gram negative bacteria use quorum sensing, an intercellular signaling network that relies on N-acyl homoserine lactone signal molecules (AHL), to regulate and coordinate behaviors and interactions. Expression of quorum sensing-regulated genes is contingent on a LuxR-type transcriptional regulator and the accumulation of a threshold concentration of the cognate AHL. The experiments in this example relate to screening assays carried out to identify compounds that interfere with virulence gene expression under the control of the LasR transcriptional activator, a member of the LuxR family of transcriptional regulators. The inventors screened a library of approximately 16,000 synthetic compounds for induction and inhibition of quorum sensing in a Pseudomonas putida AHL sensor strain, engineered with the LasR transcriptional activator, which controls virulence gene expression in Pseudomonas aeruginosa. LasR mediated gene expression was monitored by measuring green fluorescent protein (GFP) expression from a transcriptional fusion between GFP and the promoter from lasB, which is under the control of LasR. lasB is a virulence gene that encodes an elastase involved in pathogenesis.
The initial screen utilized 3oxoC10HSL [N-(3-oxo-decanoyl)-L-homoserine lactone] as the inducer of LasR mediated signaling to identify compounds that compete with 3oxoC10HSL for half-maximal activation of GFP expression by the AHL reporter. This strategy enables identification of agonists and antagonists of LasR by pursuing compounds that either reduce or augment the activity of the AHL. The inventors further analyzed the antagonists in competition with 3oxoC12HSL [N-(3-oxo-dodecanoyl)-L-homoserine lactone]. The activities of the agonists were further characterized in the absence of AHL.
To determine the effects of compounds on AHL-mediated quorum sensing, the reporter strain P. putida F117 pKRC12 was grown overnight at 28° C. in LB media, diluted with LB media to achieve an optical density of 0.05 at 600 nm (OD600), and 28 μl aliquots of cells were added to 384-well plates. 16,000 compounds were screened from a subset of the Chembridge DIVERSet, each at a final concentration of 100 nM. Bacterial cells at a final volume of 30 μl were incubated with the compounds for approximately 30 minutes prior to the addition of 3oxoC10HSL, at a final concentration of 100 nM. All of the compounds were dissolved in DMSO. DMSO was included in all controls. A Biomek FX liquid handler was used to dispense the reagents and bacteria into the 384-well plates. The initial screen was performed at room temperature. Fluorescence was measured at regular intervals after 3 hours using the EnVision plate reader (Perkin Elmer, inc.) with an excitation wavelength of 485 nm and emission detection at 510 nm. Compounds that reduced or increased the expression of GFP by a factor of greater than or equal three standard deviations from the mean values for controls containing 3oxoC10HSL were chosen for further analysis. Compounds that increased the expression of GFP by three standard deviations were designated as putative agonists. Compounds that decreased the expression of GFP by three standard deviations were designated as putative antagonists.

T1 sequence (P25084 whole entry): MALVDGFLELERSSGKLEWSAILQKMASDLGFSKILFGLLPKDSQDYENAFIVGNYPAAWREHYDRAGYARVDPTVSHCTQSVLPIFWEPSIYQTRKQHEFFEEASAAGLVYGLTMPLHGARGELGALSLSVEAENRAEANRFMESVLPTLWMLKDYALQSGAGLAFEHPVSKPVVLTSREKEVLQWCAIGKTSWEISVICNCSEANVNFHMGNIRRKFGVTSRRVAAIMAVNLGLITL

Structure (SMILES)	% Activity of AHL Standard, 3 oxo C10HSL [1]	% Activity of AHL Standard, 3 oxo C12HSL [1]	Signal 671/672 [2]	Signal 673/674 [2]	Signal 674/875 [2]
NC(=O)SCC(=O)Nc1ccc(Br)cc1 [Compound 15]	39.00%	70.10%	–	–	–
COc1cccc(NC(=O)CSC(N)=O)c1 [Compound 9]	35.50%	53.30%	–	–	–
COC(=O)c1ccccc1NC(=O)CSC(N)=O [Compound 1]	35.86%	33.64%	–	–	–
COc1ccccc1NC(=O)CSC(N)=O [Compound 5947535]	–	–	99128	169923	572429
COC(=O)c1ccc(NC(=O)CSC(N)=O)cc1 [Compound 5952057]	–	–	161090	186369	1124336
NC(=O)SCC(=O)Nc1cccc(F)c1 [Compound 5949713]	–	–	100580	97648	265386
COc1ccc(NC(=O)CSC(N)=O)c(OC)c1 [Compound 16]	35.00%	70.90%	–	–	–
CCOC(=O)c1ccccc1NC(=O)CSC(N)=O [Compound 2]	35.50%	40.09%	–	–	–
COc1ccc(NC(=O)CSC(N)=O)c(OC)c1 [Compound 5950824]	–	–	358647	332745	1769017
NC(=O)SCC(=O)Nc1ccccc1Br [Compound 5949674]	–	–	184012	227644	1811011
Cc1ccc(NC(=O)CSC(N)=O)c(C)c1 [Compound 5955325]	–	–	120271	134098	694077
Cc1ccc(Cl)cc1NC(=O)CSC(N)=O [Compound 5]	56.73%	47.85%	–	–	–
CC(=O)c1ccc(NC(=O)CSC(N)=O)cc1 [Compound 12]	59.20%	64.90%	–	–	–
NC(=O)SCC(=O)Nc1cccc(O)c1 [Compound 6]	45.08%	49.68%	–	–	–
COC(=O)c1ccccc1NC(=O)CSC(N)=O [Compound 5951673]	–	–	135505	176618	1041625
COC(=O)c1ccc(NC(=O)CSC(N)=O)cc1 [Compound 22]	57.60%	101.0%	–	–	–
Cc1cccc(NC(=O)CSC(N)=O)c1C [Compound 4]	37.50%	43.00%	–	–	–
CCOC(=O)c1ccccc1NC(=O)CSC(N)=O [Compound 5952120]	–	–	29681	31840	32358

Structure (SMILES)	% Activity of AHL Standard, 3 oxo C10HSL [1]	% Activity of AHL Standard, 3 oxo C12HSL [1]	Signal 671/672 [2]	Signal 673/674 [2]	Signal 674/875 [2]
NC(=O)SCC(=O)Nc1cccc(Cl)c1 [Compound 21]	43.30%	88.50%	–	–	–
Cc1cccc(NC(=O)CSC(N)=O)c1 [Compound 5955821]	–	–	266776	285870	1575457
Cc1ccc(NC(=O)CSC(N)=O)c(C)c1 [Compound 18]	40.00%	82.30%	–	–	–
NC(=O)SCC(=O)Nc1cccc(F)c1 [Compound 13]	33.60%	67.60%	–	–	–
NC(=O)SCC(=O)Nc1ccc(I)cc1 [Compound 5955203]	–	–	375590	386242	1805793
NC(=O)SCC(=O)Nc1cccc(I)c1 [Compound 17]	67.20%	81.20%	–	–	–
Cc1ccc(NC(=O)CSC(N)=O)cc1Cl [Compound 5952472]	–	–	176752	223255	652341
COc1cccc(NC(=O)CSC(N)=O)c1 [Compound 5956868]	–	–	246680	243693	1277307
COc1ccc(NC(=O)CSC(N)=O)cc1 [Compound 5948690]	–	–	580722	341731	1742777
NC(=O)SCC(=O)Nc1ccc(Cl)c(Cl)c1 [Compound 5949527]	–	–	314238	171491	686157
CC(=O)c1ccc(NC(=O)CSC(N)=O)cc1 [Compound 5952389]	–	–	464145	594209	1805803
NC(=O)SCC(=O)Nc1cccc(Cl)c1 [Compound 5953997]	–	–	71274	87420	218815
NC(=O)SCC(=O)Nc1ccccc1Cl [Compound 5956488]	–	–	120221	145117	867440
NC(=O)SCC(=O)Nc1ccccc1O [Compound 5947920]	–	–	31966	33599	35234
NC(=O)SCC(=O)Nc1ccc(Br)cc1 [Compound 5948339]	–	–	99889	122318	382242
Cc1ccc(Cl)cc1NC(=O)CSC(N)=O [Compound 5948544]	–	–	120140	98180	418594
Cc1cccc(NC(=O)CSC(N)=O)c1C [Compound 5956611]	–	–	116987	131695	703195
